Reference: paper PMC9814781, “Structure-based design of a dual-warhead covalent inhibitor of FGFR4” (Communications Chemistry, 2022)

How the values were obtained:
PKD2 = PKD2 (Homo sapiens, UniProt Q9BZL6); assay: Kinase selectivity profiling
EPHA2 = EPHA2 (Homo sapiens, UniProt P29317); assay: Kinase selectivity profiling
GLK = GLK (Homo sapiens, UniProt Q8IVH8); assay: Kinase selectivity profiling
CDK6/CycD1 = CDK6/CycD1 (Homo sapiens, UniProt Q00534); assay: Kinase selectivity profiling
EPHB1 = EPHB1 (Homo sapiens, UniProt P54762); assay: Kinase selectivity profiling
EPHB1, sequence (P54762 18-984): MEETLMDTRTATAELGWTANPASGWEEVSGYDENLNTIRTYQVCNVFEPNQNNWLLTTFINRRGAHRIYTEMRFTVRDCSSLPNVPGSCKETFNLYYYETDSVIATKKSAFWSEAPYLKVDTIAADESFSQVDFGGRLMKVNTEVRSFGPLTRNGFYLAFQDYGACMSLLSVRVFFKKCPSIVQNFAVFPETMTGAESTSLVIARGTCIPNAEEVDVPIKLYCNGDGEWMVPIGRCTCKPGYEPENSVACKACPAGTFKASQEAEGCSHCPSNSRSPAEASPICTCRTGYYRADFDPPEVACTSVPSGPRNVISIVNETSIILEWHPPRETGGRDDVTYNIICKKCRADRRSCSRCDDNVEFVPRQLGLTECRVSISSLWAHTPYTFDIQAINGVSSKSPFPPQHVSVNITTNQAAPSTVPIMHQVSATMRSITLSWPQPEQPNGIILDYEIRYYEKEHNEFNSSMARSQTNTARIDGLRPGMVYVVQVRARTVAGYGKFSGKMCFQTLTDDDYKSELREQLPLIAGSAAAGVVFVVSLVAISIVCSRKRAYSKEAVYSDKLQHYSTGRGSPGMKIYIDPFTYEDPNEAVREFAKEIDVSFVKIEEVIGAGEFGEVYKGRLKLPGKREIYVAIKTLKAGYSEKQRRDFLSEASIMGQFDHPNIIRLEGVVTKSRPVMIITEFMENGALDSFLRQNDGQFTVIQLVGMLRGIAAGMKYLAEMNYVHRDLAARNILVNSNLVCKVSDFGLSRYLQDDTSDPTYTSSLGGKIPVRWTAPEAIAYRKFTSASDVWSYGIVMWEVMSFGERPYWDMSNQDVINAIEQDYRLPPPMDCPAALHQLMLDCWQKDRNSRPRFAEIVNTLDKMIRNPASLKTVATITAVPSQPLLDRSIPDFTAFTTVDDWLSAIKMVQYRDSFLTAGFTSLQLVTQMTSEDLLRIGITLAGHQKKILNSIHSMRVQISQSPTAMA

ABL1 = ABL1 (Homo sapiens, UniProt P00519); assay: Kinase selectivity profiling
PLK2 = PLK2 (Homo sapiens, UniProt Q9NYY3); assay: Kinase selectivity profiling
NEK1 = NEK1 (Homo sapiens, UniProt Q96PY6); assay: Kinase selectivity profiling
TRKA = TRKA (Homo sapiens, UniProt P04629); assay: Kinase selectivity profiling
EPHA1 = EPHA1 (Homo sapiens, UniProt P21709); assay: Kinase selectivity profiling
ALK4 = ALK4 (Homo sapiens, UniProt P36896); assay: Kinase selectivity profiling
FYNa = FYNa (Homo sapiens, UniProt P06241); assay: Kinase selectivity profiling
FGFR2 = FGFR2 (Homo sapiens, UniProt P21802); assay: Kinase selectivity profiling
PAK2 = PAK2 (Homo sapiens, UniProt Q13177); assay: Kinase selectivity profiling
IKK-alpha(CHUK) = IKK-alpha(CHUK) (Homo sapiens, UniProt O15111); assay: Kinase selectivity profiling
PAK4 = PAK4 (Homo sapiens, UniProt O96013); assay: Kinase selectivity profiling
Erk2 = Erk2 (Homo sapiens, UniProt P28482); assay: Kinase selectivity profiling
EPHA5 = EPHA5 (Homo sapiens, UniProt P54756); assay: Kinase selectivity profiling
TAOK2 = TAOK2 (Homo sapiens, UniProt Q9UL54); assay: Kinase selectivity profiling
FRK = FRK (Homo sapiens, UniProt P42685); assay: Kinase selectivity profiling
CK1γ1 = CK1γ1 (Homo sapiens, UniProt Q9HCP0); assay: Kinase selectivity profiling
AKT3 = AKT3 (Homo sapiens, UniProt Q9Y243); assay: Kinase selectivity profiling
MAP2K1 = MAP2K1 (Homo sapiens, UniProt Q02750); assay: Kinase selectivity profiling
FGR = FGR (Homo sapiens, UniProt P09769); assay: Kinase selectivity profiling
EPHA4 = EPHA4 (Homo sapiens, UniProt P54764); assay: Kinase selectivity profiling
p38δ = p38δ (Homo sapiens, UniProt O15264); assay: Kinase selectivity profiling
parental Ba/F3 cells = assay: Ba/F3 cell viability assay; format: cell-based; conditions: Mus musculus, BaF3, 72 h, CCK-8
CK2α1/β = CK2α1/β (Homo sapiens, UniProt P68400); assay: Kinase selectivity profiling
PDGFRβ = PDGFRβ (Homo sapiens, UniProt P09619); assay: Kinase selectivity profiling
HCK = HCK (Homo sapiens, UniProt P08631); assay: Kinase selectivity profiling
MET = MET (Homo sapiens, UniProt P08581); assay: Kinase selectivity profiling
MET, sequence (P08581 25-1390): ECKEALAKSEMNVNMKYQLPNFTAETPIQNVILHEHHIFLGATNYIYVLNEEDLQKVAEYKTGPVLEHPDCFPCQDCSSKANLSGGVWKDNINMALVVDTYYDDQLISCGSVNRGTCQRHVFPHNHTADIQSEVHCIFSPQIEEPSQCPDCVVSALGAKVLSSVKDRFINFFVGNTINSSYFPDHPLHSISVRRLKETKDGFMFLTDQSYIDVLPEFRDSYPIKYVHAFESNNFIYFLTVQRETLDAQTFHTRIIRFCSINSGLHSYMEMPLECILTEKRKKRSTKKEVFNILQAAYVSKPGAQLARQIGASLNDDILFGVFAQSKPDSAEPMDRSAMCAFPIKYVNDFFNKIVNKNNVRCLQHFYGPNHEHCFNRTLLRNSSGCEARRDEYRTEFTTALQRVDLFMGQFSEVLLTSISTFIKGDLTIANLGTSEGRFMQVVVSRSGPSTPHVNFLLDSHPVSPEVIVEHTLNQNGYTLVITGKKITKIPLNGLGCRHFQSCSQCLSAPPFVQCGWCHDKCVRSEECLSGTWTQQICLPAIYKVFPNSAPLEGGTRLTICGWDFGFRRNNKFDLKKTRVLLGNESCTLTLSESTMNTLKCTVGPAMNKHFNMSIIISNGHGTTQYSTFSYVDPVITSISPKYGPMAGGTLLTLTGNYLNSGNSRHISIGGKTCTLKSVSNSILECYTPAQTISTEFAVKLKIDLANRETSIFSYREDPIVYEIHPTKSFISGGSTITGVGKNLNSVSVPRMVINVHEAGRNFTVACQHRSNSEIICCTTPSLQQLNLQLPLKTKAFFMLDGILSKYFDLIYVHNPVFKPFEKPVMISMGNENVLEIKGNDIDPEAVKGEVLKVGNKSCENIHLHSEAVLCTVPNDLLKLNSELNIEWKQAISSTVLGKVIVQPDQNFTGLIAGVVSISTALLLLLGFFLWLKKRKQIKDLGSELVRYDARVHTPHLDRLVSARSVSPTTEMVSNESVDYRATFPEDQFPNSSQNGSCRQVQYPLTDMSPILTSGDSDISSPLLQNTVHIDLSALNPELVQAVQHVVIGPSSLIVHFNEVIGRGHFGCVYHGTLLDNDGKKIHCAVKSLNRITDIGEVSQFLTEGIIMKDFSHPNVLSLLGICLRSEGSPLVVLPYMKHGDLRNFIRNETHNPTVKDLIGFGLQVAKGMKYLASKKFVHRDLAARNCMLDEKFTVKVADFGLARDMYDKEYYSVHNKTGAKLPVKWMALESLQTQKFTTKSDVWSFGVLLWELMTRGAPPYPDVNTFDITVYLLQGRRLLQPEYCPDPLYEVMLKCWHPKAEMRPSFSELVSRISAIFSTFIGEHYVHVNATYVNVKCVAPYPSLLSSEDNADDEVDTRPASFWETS

MUSK = MUSK (Homo sapiens, UniProt O15146); assay: Kinase selectivity profiling
Pkca = Pkca (Homo sapiens, UniProt P17252); assay: Kinase selectivity profiling
Huh7 = Huh7 viability assay; format: cell-based; conditions: Homo sapiens, Huh-7; Huh7, FGF19-overexpressing HCC cell line, 72 h, CCK-8
Method: Hep3B (ThermoFisher Scientific, 11965, America) and Huh7 (ThermoFisher Scientific, 11095, America) cells were seeded into 96-well plates at 4000 cells/well and 2000 cells/well, respectively. […] Cell viabilities were measured by a CCK-8 kit (Vazyme, China). The IC50 values were calculated using GraphPad Prism software.

RET = RET (Homo sapiens, UniProt P07949); assay: Kinase selectivity profiling
HER2 = HER2 (Homo sapiens, UniProt P04626); assay: Kinase selectivity profiling
EPHB2 = EPHB2 (Homo sapiens, UniProt P29323); assay: Kinase selectivity profiling
HIPK3 = HIPK3 (Homo sapiens, UniProt Q9H422); assay: Kinase selectivity profiling
HIPK3, sequence (Q9H422 whole entry): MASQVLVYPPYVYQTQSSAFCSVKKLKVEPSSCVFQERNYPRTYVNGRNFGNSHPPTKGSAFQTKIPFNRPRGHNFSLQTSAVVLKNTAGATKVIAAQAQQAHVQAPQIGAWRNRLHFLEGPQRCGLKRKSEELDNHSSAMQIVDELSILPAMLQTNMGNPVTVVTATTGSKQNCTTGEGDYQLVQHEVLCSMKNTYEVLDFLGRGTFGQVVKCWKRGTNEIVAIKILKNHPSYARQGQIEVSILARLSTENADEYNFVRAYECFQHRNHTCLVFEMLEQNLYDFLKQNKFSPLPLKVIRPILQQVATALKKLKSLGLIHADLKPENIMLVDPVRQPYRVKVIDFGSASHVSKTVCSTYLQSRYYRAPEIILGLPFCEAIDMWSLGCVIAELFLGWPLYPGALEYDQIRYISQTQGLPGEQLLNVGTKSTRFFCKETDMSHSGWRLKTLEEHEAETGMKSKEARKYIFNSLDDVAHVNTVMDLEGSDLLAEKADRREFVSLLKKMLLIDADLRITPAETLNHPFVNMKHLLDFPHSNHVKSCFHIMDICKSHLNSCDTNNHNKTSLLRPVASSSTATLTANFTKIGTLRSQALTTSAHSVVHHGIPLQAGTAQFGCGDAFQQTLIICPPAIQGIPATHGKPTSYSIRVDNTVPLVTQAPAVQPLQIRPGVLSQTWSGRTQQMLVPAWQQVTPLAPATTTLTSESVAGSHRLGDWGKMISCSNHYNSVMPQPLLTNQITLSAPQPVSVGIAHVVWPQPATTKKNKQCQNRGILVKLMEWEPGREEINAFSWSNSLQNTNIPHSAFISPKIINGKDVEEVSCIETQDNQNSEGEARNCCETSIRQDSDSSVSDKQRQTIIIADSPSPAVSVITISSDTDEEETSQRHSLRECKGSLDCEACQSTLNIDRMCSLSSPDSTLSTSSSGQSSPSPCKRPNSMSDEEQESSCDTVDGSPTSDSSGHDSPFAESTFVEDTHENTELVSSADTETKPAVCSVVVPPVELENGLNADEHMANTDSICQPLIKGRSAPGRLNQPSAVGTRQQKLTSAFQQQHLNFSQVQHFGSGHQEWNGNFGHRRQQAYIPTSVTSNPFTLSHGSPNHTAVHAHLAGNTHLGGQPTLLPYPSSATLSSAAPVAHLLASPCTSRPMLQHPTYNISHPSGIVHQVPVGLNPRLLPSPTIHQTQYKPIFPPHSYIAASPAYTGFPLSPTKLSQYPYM

PLK3 = PLK3 (Homo sapiens, UniProt Q9H4B4); assay: Kinase selectivity profiling

PKD2, sequence (Q9BZL6 whole entry): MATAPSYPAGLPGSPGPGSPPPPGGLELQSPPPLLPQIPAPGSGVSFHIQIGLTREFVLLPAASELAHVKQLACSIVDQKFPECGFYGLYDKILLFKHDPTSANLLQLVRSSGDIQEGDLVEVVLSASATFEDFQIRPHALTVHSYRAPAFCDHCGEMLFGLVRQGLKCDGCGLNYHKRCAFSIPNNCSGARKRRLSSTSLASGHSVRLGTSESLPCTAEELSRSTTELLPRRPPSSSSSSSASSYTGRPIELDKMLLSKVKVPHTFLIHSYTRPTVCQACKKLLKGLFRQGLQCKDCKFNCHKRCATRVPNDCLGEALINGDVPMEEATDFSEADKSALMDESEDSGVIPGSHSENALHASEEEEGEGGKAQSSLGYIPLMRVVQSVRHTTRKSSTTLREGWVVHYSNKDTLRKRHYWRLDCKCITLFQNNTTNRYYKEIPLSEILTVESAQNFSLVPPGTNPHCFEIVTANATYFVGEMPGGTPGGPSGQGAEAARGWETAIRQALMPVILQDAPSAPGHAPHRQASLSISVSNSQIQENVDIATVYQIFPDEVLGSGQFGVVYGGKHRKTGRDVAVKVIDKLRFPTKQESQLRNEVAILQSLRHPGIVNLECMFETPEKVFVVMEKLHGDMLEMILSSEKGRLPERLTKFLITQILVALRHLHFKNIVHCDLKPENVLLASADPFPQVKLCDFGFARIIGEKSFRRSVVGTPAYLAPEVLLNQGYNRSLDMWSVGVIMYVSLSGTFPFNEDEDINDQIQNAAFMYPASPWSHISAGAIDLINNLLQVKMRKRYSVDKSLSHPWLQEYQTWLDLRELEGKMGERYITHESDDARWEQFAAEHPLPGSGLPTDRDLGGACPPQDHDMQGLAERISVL
CDK6/CycD1, sequence (Q00534 whole entry): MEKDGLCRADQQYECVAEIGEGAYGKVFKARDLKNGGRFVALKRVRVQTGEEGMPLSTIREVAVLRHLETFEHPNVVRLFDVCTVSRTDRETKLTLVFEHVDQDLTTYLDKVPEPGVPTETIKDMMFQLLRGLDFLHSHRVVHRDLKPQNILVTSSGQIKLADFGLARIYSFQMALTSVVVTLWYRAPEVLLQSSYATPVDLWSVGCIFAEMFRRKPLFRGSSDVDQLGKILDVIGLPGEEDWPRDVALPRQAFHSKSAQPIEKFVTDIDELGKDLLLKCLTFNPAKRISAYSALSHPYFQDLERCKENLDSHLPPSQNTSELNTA
CDK6/CycD1, sequence (P24385 whole entry partner): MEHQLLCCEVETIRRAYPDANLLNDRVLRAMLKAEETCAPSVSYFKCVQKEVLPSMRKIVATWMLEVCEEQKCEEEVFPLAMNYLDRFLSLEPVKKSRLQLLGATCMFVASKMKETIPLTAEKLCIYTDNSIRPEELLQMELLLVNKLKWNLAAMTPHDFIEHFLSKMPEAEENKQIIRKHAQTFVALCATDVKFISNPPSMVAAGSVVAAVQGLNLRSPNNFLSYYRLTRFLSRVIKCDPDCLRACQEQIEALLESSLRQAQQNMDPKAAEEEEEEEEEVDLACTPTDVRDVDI

## C=CC(=O)Nc1ccccc1Nc1ncc2c(n1)N(CCCN1CCN(C(=O)C=C)CC1)C(=O)N(c1cc(OC)cc(OC)c1)C2 [CXF-009]
PKD2
  inhibition at 1 µM: 0.08%
EPHA2
  inhibition at 1 µM: 2.12%
GLK
  inhibition at 1 µM: 2.68%
CDK6/CycD1
  inhibition at 1 µM: -9.58%
EPHB1
  inhibition at 1 µM: -1.49%
ABL1
  inhibition at 1 µM: -1.44%
PLK2
  inhibition at 1 µM: -19.5%
NEK1
  inhibition at 1 µM: 1.39%
TRKA
  inhibition at 1 µM: 26.2%
EPHA1
  inhibition at 1 µM: 2.15%
ALK4
  inhibition at 1 µM: 0.23%
FYNa
  inhibition at 1 µM: -9.44%
FGFR2
  inhibition at 1 µM: 0.27%
PAK2
  inhibition at 1 µM: 3.22%
IKK-alpha(CHUK)
  inhibition at 1 µM: 2.35%
PAK4
  inhibition at 1 µM: 6.5%
Erk2
  inhibition at 1 µM: 0.94%
EPHA5
  inhibition at 1 µM: 8.67%
TAOK2
  inhibition at 1 µM: -3.76%
FRK
  inhibition at 1 µM: -0.22%
CK1γ1
  inhibition at 1 µM: 4.78%
AKT3
  inhibition at 1 µM: -0.52%
MAP2K1
  inhibition at 1 µM: 0.59%
FGR
  inhibition at 1 µM: -1.1%
EPHA4
  inhibition at 1 µM: -6.83%
p38δ
  inhibition at 1 µM: 13.9%
Parental Ba/F3 cells
  IC50: > 5000 nM
CK2α1/β
  inhibition at 1 µM: -3.22%
PDGFRβ
  inhibition at 1 µM: -6.88%
HCK
  inhibition at 1 µM: -11.6%
MET
  inhibition at 1 µM: 2.65%
MUSK
  inhibition at 1 µM: -3.46%
Pkca
  inhibition at 1 µM: 1.73%
Huh7
  IC50: 727 nM
RET
  inhibition at 1 µM: 1.72%
HER2
  inhibition at 1 µM: 10.7%
EPHB2
  inhibition at 1 µM: -3.12%
HIPK3
  inhibition at 1 µM: -4.6%
PLK3
  inhibition at 1 µM: -1.12%
